IC50 data for 49 molecules are collected here from patent US12110287B2, “Heterocyclic derivatives as Nav1.7 and Nav1.8 blockers” (RaQualia Pharma Inc., priority 2018, dated 2024).

For orientation: IC50 means the concentration at which inhibition is half-maximal.

In this experiment the target is Nav1.7 (Homo sapiens, UniProt Q15858). As to the kind of experiment: EFS-FRET assay. The experiment is classed as cell-based. More on the design: expressed in transfected cells; host or cells: CHO (Chinese hamster ovary) cells. To be noted: CHO cells expressing human Nav1.7 channels, read-out: IC50 against Nav1.7. As for the experimental part: This screen is used to determine the effects of compounds on human Nav1.7 channels, utilizing electrical field stimulation (EFS) system in 96-well plate format on FDSS (Hamamatsu Photonics) platform. The changes of membrane potential are monitored with FRET dye pair, DiSBAC2(3) and PTS18.
Nav1.7, sequence (Q15858 whole entry): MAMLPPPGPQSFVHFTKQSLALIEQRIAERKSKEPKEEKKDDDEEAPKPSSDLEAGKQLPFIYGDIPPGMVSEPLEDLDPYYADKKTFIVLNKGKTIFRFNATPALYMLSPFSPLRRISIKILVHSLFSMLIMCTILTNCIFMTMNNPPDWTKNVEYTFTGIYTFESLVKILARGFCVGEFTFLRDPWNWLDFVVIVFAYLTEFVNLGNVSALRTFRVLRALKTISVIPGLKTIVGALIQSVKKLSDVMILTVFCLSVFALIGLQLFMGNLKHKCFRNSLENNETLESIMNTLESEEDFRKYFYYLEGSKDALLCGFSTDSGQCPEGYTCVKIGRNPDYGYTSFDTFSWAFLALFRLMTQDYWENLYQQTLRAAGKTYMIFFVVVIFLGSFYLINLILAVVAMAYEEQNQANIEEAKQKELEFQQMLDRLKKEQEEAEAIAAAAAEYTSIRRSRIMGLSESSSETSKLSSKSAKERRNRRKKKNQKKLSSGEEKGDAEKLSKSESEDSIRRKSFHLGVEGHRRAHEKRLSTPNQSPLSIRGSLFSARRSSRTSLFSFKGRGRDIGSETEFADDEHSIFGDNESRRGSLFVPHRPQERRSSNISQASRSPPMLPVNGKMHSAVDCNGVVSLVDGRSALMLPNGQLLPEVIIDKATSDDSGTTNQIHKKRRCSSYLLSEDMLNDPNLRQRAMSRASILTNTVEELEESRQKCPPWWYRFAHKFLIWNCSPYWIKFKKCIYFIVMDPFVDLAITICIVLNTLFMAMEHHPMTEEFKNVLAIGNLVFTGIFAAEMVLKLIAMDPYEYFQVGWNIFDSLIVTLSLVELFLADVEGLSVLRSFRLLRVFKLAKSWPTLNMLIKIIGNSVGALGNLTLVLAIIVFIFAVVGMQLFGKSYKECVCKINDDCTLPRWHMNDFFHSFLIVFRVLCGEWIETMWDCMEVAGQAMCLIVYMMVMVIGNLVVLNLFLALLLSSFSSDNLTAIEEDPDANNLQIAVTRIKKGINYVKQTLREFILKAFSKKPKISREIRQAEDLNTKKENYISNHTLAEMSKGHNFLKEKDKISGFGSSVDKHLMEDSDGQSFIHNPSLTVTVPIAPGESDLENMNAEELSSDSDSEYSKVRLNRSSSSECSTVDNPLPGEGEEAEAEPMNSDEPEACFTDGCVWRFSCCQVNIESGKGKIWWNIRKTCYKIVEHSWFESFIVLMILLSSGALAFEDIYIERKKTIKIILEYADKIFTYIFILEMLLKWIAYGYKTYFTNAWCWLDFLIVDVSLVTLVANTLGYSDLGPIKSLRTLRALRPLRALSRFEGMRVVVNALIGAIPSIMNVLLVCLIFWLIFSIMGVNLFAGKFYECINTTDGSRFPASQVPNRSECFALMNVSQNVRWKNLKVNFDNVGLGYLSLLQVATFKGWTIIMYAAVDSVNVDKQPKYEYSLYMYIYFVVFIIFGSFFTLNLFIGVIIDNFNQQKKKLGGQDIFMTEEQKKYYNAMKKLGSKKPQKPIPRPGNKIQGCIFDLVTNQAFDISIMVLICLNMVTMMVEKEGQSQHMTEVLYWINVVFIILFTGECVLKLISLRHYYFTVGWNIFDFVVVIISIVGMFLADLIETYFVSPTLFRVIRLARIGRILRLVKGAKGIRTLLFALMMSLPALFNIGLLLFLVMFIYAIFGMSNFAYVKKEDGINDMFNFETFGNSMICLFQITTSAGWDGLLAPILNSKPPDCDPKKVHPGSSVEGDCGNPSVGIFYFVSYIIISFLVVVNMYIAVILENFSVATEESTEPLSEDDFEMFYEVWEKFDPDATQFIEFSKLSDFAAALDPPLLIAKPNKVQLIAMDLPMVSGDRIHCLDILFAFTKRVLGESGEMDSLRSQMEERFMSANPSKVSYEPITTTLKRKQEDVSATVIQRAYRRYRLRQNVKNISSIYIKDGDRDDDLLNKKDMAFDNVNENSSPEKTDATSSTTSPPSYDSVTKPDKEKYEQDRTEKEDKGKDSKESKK
CHO (Chinese hamster ovary) cells expressing human Nav1.7 channels are grown in T225 flasks, in a 5% CO2 humidified incubator to about 80% confluence. Media composition consists of HAM/F12 with Glutamax I, 10% FCS, 100 units/mF penicillin and 100 microgram/mF hygromycin.
• Seed each cell lines (1×10^5 cells/well) into 96-well plates prior to experimentation. • Incubate at 37° C. in 5% CO2 for 24 hours. • Wash each well with assay buffer (140 mM NaCl, 4.5 mM KCl, 10 mM D-Glucose, 2 mM CaCl2, 1 mM MgCl2, 10 mM HEPES, pH 7.4 adjusted with NaOH) twice. • Add 1st loading solution containing 10 microM PTS18 and 0.06% Pluronic F-127 in assay buffer. • Incubate the plate at rt in dark for 1 hour. • Remove 1st loading solution and add 2nd loading solution containing 12.5 microM DiSBAC2(3), 1.25 mM Xylene Fast Yellow and 0.0075% Pluronic F-127 in assay buffer. • Place the plate under the dark at rt for 25 minutes. • Add compound solutions into the assay plate. • Set the assay plate in FDSS and place an EFS device on the plate. • Measure EFS-induced fluorescent response by FDSS.
The data are analyzed and reported as normalized ratios of intensities measured at […]. The process of calculating these ratios is performed as follows:
This analysis is performed using a computerized specific program designed for FDSS generated data. Fluorescence ratio values are plotted using XLfit to determine an IC50 value for each compound.
With `CC(=O)Nc1cc(C(=O)N[C@@H]2CCN(c3ncc(C(F)(F)F)cc3Cl)C2)ccn1` [Example 2], the IC50 was below 500 nM. Next, `CC(=O)Nc1cc(C(=O)NC2CN(c3ncc(C(F)(F)F)cc3Cl)C2)ccn1` [Example 8]: below 500 nM; `Cc1cc(C(=O)N[C@@H]2CCN(c3ncc(C(F)(F)F)cc3Cl)C2)cc(NC(=O)C2CC2)n1` [Example 78]: below 500 nM.

For `O=C(N[C@@H]1CCCN(c2ncc(C(F)(F)F)cc2Cl)C1)c1ccnc(NC(=O)C2CCC2)n1` [Example 28], the 50% inhibitory concentration (IC50) is below 500 nM. Next, `O=C(N[C@@H]1CCCN(c2ncc(C(F)(F)F)cc2Br)C1)c1ccnc(NC(=O)C2CC2)c1` [Example 59]: below 500 nM. Next, `CCC(=O)Nc1nccc(C(=O)N[C@@H]2CCCN(c3ncc(C(F)(F)F)cc3Cl)C2)n1` [Example 25]: below 500 nM; `CCC(=O)Nc1cc(C(=O)N[C@@H]2CCN(c3ncc(C(F)(F)F)cc3OC)C2)ccn1` [Example 38]: below 500 nM; `CC(C)C(=O)Nc1cc(C(=O)N[C@H]2CN(c3ncc(C(F)(F)F)cc3Cl)CC23CC3)ccn1` [Example 109]: below 500 nM. With `Cc1cc(C(F)(F)F)cnc1N1CC[C@@H](NC(=O)c2ccnc(NC(=O)C3CC3)c2)C1` [Example 47], the IC50 was below 500 nM. The result for `Cc1cc(C(=O)N[C@@H]2CCN(c3ccc(C(F)(F)F)cc3Cl)C2)cc(NC(=O)C(C)C)n1` [Example 80] reads below 500 nM; that for `Cc1cc(C(=O)N[C@@H]2CCN(c3ncc(C(F)(F)F)cc3Cl)C2)cc(NC(=O)C(C)C)n1` [Example 104], below 500 nM.

`CC(=O)Nc1cc(C(=O)N[C@@H]2CCCN(c3ncc(C(F)(F)F)cc3Cl)C2)ccn1` [Example 5]: the concentration for half-maximal inhibition (IC50) is below 500 nM. Next, `CCC(=O)Nc1nccc(C(=O)N[C@@H]2CCN(c3ncc(C(F)(F)F)cc3Cl)C2)n1` [Example 20]: below 500 nM; `CCC(=O)Nc1cc(C(=O)N[C@@H]2CCN(c3ncc(C(F)(F)F)cc3Cl)C2)cc(C)n1` [Example 11]: below 500 nM. For the molecule `COc1cc(C(F)(F)F)cnc1N1CC[C@@H](NC(=O)c2ccnc(NC(=O)C3CC3)c2)C1` [Example 81], the IC50 is below 500 nM.

As to `Cc1cc(C(=O)N[C@@H]2CCCN(c3ncc(C(F)(F)F)cc3Cl)C2)nc(NC(=O)C2CC2)n1` [Example 114], the IC50 is below 500 nM. Take `O=C(N[C@@H]1CCCN(c2ncc(OCc3ccc(F)cc3)cc2Cl)C1)c1ccnc(NC(=O)C2CC2)c1` [Example 99]: the IC50 is below 500 nM. In the case of `O=C(N[C@H]1CN(c2ncc(C(F)(F)F)cc2Cl)CC12CC2)c1ccnc(NC(=O)C2CC2)n1` [Example 119], the IC50 was below 500 nM. Next, `COc1cc(C(F)(F)F)cnc1N1CC[C@@H](NC(=O)c2cc(C)nc(NC(=O)C(C)C)c2)C1` [Example 84]: below 500 nM.

In the case of `COc1cc(C(F)(F)F)cnc1N1CC[C@@H](NC(=O)c2cc(C)nc(NC(C)=O)c2)C1` [Example 39], the IC50 is below 500 nM. Next, `Cc1cc(C(=O)N[C@@H]2CCCN(c3ccc(C(F)(F)F)cc3Cl)C2)cc(NC(=O)C(C)C)n1` [Example 58]: below 500 nM; `CC(=O)Nc1cc(C(=O)NC2CCC(C)N(c3ncc(C(F)(F)F)cc3Cl)C2)ccn1` (stereo not shown) [Example 41]: below 500 nM; `CC(C)C(=O)Nc1cc(C(=O)N[C@@H]2CCCN(c3ccc(C(F)(F)F)cc3Cl)C2)ccn1` [Example 57]: below 500 nM. The result for `O=C(N[C@@H]1CCN(c2ncc(C(F)(F)F)cc2Cl)C1)c1ccnc(NC(=O)C2CCC2)n1` [Example 23] reads below 500 nM. Next, `Cc1cc(C(=O)N[C@@H]2CCCN(c3ncc(C(F)(F)F)cc3Br)C2)cc(NC(=O)C2CC2)n1` [Example 60]: below 500 nM; `O=C(N[C@@H]1CCN(c2ccc(C(F)(F)F)cc2Cl)C1)c1ccnc(NC(=O)C2CC2)c1` [Example 77]: below 500 nM; `CCC(=O)Nc1cc(C(=O)N[C@@H]2CCN(c3ccc(C(F)(F)F)cn3)C2)ccn1` [Example 16]: below 500 nM. For `CC(=O)Nc1nccc(C(=O)N[C@@H]2CCCN(c3ncc(C(F)(F)F)cc3Cl)C2)n1` [Example 24], the IC50 was below 500 nM. `CCCC(=O)Nc1cc(C(=O)N[C@@H]2CCN(c3ncc(C(F)(F)F)cc3OC)C2)ccn1` [Example 88]: the IC50 was below 500 nM. With `CC(C)C(=O)Nc1cc(C(=O)N[C@@H]2CCN(c3ncc(C(F)(F)F)cc3Cl)C2)ccn1` [Example 10], the IC50 was below 500 nM. The result for `O=C(N[C@@H]1CCCN(c2ccc(OC(F)(F)F)cc2Cl)C1)c1ccnc(NC(=O)C2CC2)n1` [Example 126] reads below 500 nM; that for `CCC(=O)Nc1cc(C(=O)N[C@@H]2CCN(c3ncc(OCC(F)(F)F)cc3Cl)C2)ccn1` [Example 96], below 500 nM; that for `Cc1cc(C(=O)N[C@@H]2CCCN(c3ccc(C(F)(F)F)cc3Cl)C2)cc(NC(=O)C2CC2)n1` [Example 56], below 500 nM. As for `Cc1cc(C(=O)NC2CN(c3ncc(C(F)(F)F)cc3Cl)C2)cc(NC(=O)C(C)C)n1` [Example 52], the IC50 was below 500 nM. The result for `COc1cc(C(F)(F)F)cnc1N1CC[C@@H](NC(=O)c2ccnc(NC(C)=O)c2)C1` [Example 37] reads below 500 nM; that for `CC(=O)Nc1cc(C(=O)N[C@H]2CN(c3ncc(C(F)(F)F)cc3Cl)CC23CC3)cc(C)n1` [Example 117], below 500 nM; that for `CCC(=O)Nc1cc(C(=O)N[C@@H]2CCN(c3ncc(C(F)(F)F)cc3Cl)C2)ccn1` [Example 48], below 500 nM.

For the molecule `CC(=O)Nc1cc(C(=O)N[C@@H]2CCN(c3ncc(C(F)(F)F)cc3Cl)C2)cc(C)n1` [Example 49], the IC50 is below 500 nM. The result for `CC(=O)Nc1cc(C(=O)NC2CN(c3ncc(C(F)(F)F)cc3Cl)C2)cc(C)n1` [Example 51] reads below 500 nM; that for `O=C(N[C@@H]1CCCN(c2ccc(C(F)(F)F)cc2Cl)C1)c1ccnc(NC(=O)C2CC2)c1` [Example 55], below 500 nM; that for `CCC(=O)Nc1cc(C(=O)N[C@@H]2CCCN(c3ncc(C(F)(F)F)cc3Cl)C2)ccn1` [Example 6], below 500 nM. Next, `CC(C)C(=O)Nc1cc(C(=O)N[C@@H]2CCN(c3ccc(C(F)(F)F)cc3Cl)C2)ccn1` [Example 79]: below 500 nM; `CCC(=O)Nc1cc(C(=O)N[C@@H]2CCCN(c3ncc(OCC(F)(F)F)cc3Cl)C2)ccn1` [Example 95]: below 500 nM. The result for `CC(C)C(=O)Nc1cc(C(=O)NC2CN(c3ncc(C(F)(F)F)cc3Cl)C2)ccn1` [Example 50] reads below 500 nM; that for `CC(=O)Nc1cc(C(=O)N[C@@H]2CCN(c3ccc(C(F)(F)F)cc3)C2)ccn1` [Example 120], below 500 nM; that for `COc1cc(C(F)(F)F)cnc1N1CC[C@@H](NC(=O)c2cc(C)nc(NC(=O)C3CC3)c2)C1` [Example 82], below 500 nM. Regarding `O=C(N[C@@H]1CCCN(c2ncc(C(F)(F)F)cc2Cl)C1)c1ccnc(NC(=O)C2CC2)n1` [Example 26], the IC50 was below 500 nM. Next, `Cc1cc(C(=O)N[C@@H]2CCCN(c3ncc(C(F)(F)F)cc3C)C2)cc(NC(=O)C(C)C)n1` [Example 73]: below 500 nM; `CC(C)C(=O)Nc1nccc(C(=O)N[C@@H]2CCCN(c3ncc(C(F)(F)F)cc3Cl)C2)n1` [Example 27]: below 500 nM.
